Here are results for 1 compound from ChEMBL document CHEMBL1136841, “Discovery of 2-(alpha-methylbenzylamino) pyrazines as potent Type II inhibitors of FMS” (Bioorg Med Chem Lett, 2009).

Data set [1] relates to Rattus norvegicus. Nature of the data set: Half life in rat at 5 mg/kg, iv. Type of data set: ADME, organism-based. The arrangement: dose 5 mg/kg, route intravenous. The settings on record: in vivo.
The test system of data set [2] is Rattus norvegicus. Nature of the data set: Apparent volume of distribution in rat at 5 mg/kg, iv. The settings on record: in vivo. Also noted: dose 5 mg/kg, route intravenous. Type of data set: ADME, organism-based.

`Cc1cccc(C(=O)Nc2cccc([C@H](C)Nc3cncc(Cl)n3)c2)c1`: in the data set with Rattus norvegicus [1], the t1/2 came out at 5.9 h. Further, the Vz in the data set on Rattus norvegicus [2] is 30.2 L/kg.
